Experimental data published in patent US20090111868A1 (priority 2004, published 2009).

Legend:
BKCa channels = BKCa channels (Homo sapiens, UniProt Q12791); conditions: cited from earlier work
BKCa channel [1] = target: BKCa channel (Mus musculus, UniProt Q08460); assay: Single channel recordings of BKCa channel, outside-out and inside-out patches (cell-free configuration); type: biochemical; conditions: not shown
Description: Amplitude histograms are shown on the right. […] Ca^2+ was maintained at 0 (virtual; actual<20 nM) through dialysis using patch pipette. Since cellular compartments are excluded from patch and outside-out patch perfused locally with 0 Ca^2+, activation is Ca^2+-independent. […] Amplitude histograms are shown on the right.

BKCa channel (mSlo) = target: T1, BKCa channel (mSlo) (Mus musculus, UniProt Q08460); assay: Whole cell patch clamp of BKCa channel in stably transfected mSlo HEK293 cells; type: cell-based, murine; conditions: TEA 5 mM
T1 construct: expressed in transfected cells
T1 sequence (Q08460 whole entry): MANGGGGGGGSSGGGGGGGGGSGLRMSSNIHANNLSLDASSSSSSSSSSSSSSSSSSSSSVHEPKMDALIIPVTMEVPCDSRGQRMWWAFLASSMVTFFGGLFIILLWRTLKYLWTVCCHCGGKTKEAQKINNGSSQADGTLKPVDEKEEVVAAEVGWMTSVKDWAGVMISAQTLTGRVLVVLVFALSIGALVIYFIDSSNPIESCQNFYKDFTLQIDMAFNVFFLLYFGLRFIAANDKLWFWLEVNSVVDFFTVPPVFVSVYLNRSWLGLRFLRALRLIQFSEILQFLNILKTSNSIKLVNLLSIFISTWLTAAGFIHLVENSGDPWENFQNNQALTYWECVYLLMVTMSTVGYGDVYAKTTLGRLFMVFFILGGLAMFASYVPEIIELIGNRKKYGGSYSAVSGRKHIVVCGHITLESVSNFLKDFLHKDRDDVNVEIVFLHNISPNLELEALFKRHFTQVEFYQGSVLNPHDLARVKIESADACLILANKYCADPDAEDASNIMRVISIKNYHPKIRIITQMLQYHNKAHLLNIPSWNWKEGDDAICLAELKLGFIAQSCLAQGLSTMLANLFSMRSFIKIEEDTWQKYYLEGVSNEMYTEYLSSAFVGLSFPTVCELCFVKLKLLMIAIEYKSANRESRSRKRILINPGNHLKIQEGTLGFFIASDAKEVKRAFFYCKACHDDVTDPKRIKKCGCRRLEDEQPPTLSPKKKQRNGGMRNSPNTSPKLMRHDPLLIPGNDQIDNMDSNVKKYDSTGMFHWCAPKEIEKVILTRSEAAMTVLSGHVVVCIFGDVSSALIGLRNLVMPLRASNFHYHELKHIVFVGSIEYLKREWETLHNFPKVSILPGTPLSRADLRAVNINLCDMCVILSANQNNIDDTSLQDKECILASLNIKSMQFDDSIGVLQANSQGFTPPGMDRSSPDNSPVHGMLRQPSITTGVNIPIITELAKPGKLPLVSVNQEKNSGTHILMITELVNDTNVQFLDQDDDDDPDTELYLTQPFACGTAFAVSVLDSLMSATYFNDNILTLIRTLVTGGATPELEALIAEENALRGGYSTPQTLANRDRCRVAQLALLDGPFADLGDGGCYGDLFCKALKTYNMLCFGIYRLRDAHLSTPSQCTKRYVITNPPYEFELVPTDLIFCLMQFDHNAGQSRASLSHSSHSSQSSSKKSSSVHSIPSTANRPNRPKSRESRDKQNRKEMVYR
Description: (A-B) Representative current traces from whole cell patch with 5 mM EGTA in patch pipette. […] Voltage steps are shown at the right of each tracing; note different maximum voltage steps +200 mV (upper) vs. +120 mV (lower). […] Tail currents are in opposite direction due to final voltage step (+60 upper, −60 mV left). (C) G-V curves were constructed for indicated conditions utilizing tail analysis (Xia, et al., Multiple regulatory sites in large-conductance calcium-activated potassium channels. Nature, 2002. 418(6900):880-4). Solid lines were fitted with Boltzmann function (Origin 7.5). […] Representative of>30 similar experiments with rat and murine (pictured) s1o. (D-E) Stable mslo HEK293 cells were studied in whole cell configuration with pipette solution containing 5 mM EGTA (˜0 free Ca^2+).
(§1) Current was monitored with ramp protocol; holding potential −60 mV, with ramp from −80 mV to +150 mV over 500 ms. Extracellular application of NS-1619 (10 μM) increased current as previously described (Olesen, et al., Selective activation of Ca(2+)-dependent K+channels by novel benzimidazolone. Eur. J. Pharmacol., 1994. 251(1):53-9). […] Analysis performed using tail analysis with normalization as previously described (Xia, et al., Multiple regulatory sites in large-conductance calcium-activated potassium channels. Nature, 2002. 418(6900):880-4). (B) HEK cells co-expressing α and β1 subunits were studied in whole cell configuration with 5 mM EGTA (intra-pipette). […] (C) Human VSMC were studied in outside-out configuration, utilizing single channel recordings, recorded at +60 mV. […] Identification of the BKCa channel was determined by conductance and inhibition by iberiotoxin and TEA. […] Murine femoral arterial rings from were isolated and placed in a wire myograph. […] Figure representative of 4 similar experiments. Error bars are SEM; * p<0.001.

[2] = tested on: Murine femoral arterial rings; assay: Phenylephrine induced constriction of femoral arterial rings, wire myograph; type: cell-based; conditions: TEA
Description: as §1

[3] = not told; cited from earlier work
maxi-K channels = maxi-K channels (Homo sapiens, UniProt Q12791); conditions: applied to the cytoplasmic side; cited from earlier work
Sequence of maxi-K channels (Q12791 whole entry): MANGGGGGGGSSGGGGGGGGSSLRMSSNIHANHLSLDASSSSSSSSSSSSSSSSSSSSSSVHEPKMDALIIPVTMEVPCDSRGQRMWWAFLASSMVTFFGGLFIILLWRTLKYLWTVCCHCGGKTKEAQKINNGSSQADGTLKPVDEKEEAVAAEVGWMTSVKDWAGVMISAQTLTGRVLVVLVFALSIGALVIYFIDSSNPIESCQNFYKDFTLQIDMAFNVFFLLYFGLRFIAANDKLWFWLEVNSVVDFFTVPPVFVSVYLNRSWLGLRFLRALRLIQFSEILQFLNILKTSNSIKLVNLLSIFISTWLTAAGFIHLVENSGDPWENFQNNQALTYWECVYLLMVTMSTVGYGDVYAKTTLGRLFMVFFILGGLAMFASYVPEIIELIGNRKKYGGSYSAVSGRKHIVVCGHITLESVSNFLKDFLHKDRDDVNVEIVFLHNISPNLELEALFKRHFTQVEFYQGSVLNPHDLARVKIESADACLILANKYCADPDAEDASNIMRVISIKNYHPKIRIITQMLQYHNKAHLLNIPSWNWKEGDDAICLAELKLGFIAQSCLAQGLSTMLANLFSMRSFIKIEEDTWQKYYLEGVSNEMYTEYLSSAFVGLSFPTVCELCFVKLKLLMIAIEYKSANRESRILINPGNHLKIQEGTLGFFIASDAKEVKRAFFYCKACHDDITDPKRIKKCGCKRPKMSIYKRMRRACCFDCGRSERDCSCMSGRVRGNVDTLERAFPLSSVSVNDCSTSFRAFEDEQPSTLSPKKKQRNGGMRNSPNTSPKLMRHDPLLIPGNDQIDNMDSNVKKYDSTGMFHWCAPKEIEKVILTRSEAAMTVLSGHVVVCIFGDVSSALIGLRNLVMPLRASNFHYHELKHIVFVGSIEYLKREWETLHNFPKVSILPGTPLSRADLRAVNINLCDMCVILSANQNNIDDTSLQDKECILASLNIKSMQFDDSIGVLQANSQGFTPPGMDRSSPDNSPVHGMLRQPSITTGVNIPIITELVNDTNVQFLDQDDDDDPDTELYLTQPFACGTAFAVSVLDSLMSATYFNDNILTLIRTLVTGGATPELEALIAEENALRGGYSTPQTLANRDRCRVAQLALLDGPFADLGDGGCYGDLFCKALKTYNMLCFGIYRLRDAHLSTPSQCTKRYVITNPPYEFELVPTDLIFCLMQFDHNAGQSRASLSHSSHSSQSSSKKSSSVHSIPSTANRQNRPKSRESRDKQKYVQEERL

BKCa channel [4] = target: T2, BKCa channel (Sus scrofa, UniProt O18866); conditions: cited from earlier work
T2 construct: host or cells: porcine coronary artery cells (endogenous)
T2 sequence (O18866 whole entry): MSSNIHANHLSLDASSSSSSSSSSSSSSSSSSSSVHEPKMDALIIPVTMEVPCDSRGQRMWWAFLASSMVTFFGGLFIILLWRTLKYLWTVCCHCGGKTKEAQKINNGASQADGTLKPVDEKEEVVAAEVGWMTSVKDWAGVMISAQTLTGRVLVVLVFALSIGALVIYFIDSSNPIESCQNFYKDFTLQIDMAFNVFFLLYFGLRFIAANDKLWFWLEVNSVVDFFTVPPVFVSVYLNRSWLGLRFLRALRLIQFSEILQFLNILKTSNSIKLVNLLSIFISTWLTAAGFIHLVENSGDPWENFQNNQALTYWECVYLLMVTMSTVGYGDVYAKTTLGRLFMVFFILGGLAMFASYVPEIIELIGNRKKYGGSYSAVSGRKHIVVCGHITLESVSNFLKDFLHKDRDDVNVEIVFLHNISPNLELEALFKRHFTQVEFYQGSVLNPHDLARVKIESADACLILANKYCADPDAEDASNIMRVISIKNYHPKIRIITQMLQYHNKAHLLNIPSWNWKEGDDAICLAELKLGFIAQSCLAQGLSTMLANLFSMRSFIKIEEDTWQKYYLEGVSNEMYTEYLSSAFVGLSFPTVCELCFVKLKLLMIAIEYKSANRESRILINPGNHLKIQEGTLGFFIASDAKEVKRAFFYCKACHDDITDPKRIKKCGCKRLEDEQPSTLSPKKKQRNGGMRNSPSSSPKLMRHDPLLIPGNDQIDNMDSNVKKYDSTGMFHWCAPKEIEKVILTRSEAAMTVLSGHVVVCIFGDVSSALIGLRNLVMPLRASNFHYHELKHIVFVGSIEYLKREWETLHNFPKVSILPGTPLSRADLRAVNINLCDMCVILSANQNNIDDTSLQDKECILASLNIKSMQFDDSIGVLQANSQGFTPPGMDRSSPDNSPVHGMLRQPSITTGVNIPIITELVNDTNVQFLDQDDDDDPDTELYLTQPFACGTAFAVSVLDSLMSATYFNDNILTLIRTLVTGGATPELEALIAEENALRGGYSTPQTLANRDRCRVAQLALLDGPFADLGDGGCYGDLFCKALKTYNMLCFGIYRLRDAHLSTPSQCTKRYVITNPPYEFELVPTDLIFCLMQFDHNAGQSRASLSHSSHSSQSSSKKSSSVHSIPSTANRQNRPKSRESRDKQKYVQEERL

Sequence of BKCa channels (Q12791 whole entry): as the sequence (Q12791 whole entry) above
Sequence of BKCa channel (Mus musculus, UniProt Q08460) (Q08460 whole entry, the tested form may be a part): as the sequence (Q08460 whole entry) above

CC1(C)C[C@@H](O)[C@]2(C)CC[C@]3(C)C(=CC[C@@H]4[C@@]5(C)CC[C@H](O[C@@H]6O[C@H](C(=O)O)[C@@H](O)[C@H](O)[C@H]6O[C@@H]6O[C@H](CO)[C@H](O)[C@H](O)[C@H]6O)[C@](C)(CO)[C@@H]5CC[C@]43C)[C@@H]2C1 [soyasaponin III]
BKCa channel activation (BKCa channels): activate BKCa channels

C[C@@H]1O[C@@H](O[C@H]2[C@H](O[C@H]3[C@H](O[C@H]4CC[C@@]5(C)[C@@H](CC[C@]6(C)[C@@H]5CC=C5[C@@H]7CC(C)(C)C[C@@H](O)[C@]7(C)CC[C@]56C)[C@@]4(C)CO)O[C@H](C(=O)O)[C@@H](O)[C@@H]3O)O[C@H](CO)[C@H](O)[C@@H]2O)[C@H](O)[C@H](O)[C@H]1O [soyasaponin I]
BKCa channel activation (BKCa channels): activate BKCa channels

CC[N+](CC)(CC)CC [TEA, reference compound]
inhibition of rottlerin channel activation (BKCa channel [1]): can be inhibited | inhibition of rottlerin induced BKCa activation (BKCa channel (mSlo)): reversibly inhibited | inhibition of the rottlerin mediated effect on contraction [2]: inhibited

iberiotoxin: inhibitor used to identify the BKCa channel (QFTDVDCSVSKECWSVCKDLFGVDRGKCMGKKCRCYQ; UniProt P24663 1-37, looked up) [reference compound]
inhibition of rottlerin channel activation (BKCa channel [1]): can be inhibited

C=C[C@]1(C)C=C2CC[C@@]3(O)C(C)(C)CC[C@H](O)[C@]3(C)C2CC1 (stereo partly drawn) [Maxikdiol]
membrane permeability [3]: limited | concentration with significant effect on channel (maxi-K channels): 3 to 10 µM | threshold concentration for channel activation (maxi-K channels): 1 µM

O=C(Nc1cccc(C(F)(F)F)c1)Nc1cc(Cl)ccc1O [NS1608]
effect at higher concentrations (bell shaped) (BKCa channel [4]; 50 μM): inhibitory effect | concentration of maximum BKCa channel activation (BKCa channel [4]; porcine coronary artery cells): 5 to 10 µM | minimum effective concentration, BKCa channel activation (BKCa channel [4]; porcine coronary artery cells): 0.5 µM
